This is an account of results in patent US20220324835A1 (Nurix Therapeutics, Inc., priority 2018, published 2022).

Assay [1] addresses T1, Cbl-b (Homo sapiens, UniProt Q13191). In words: Cbl-b inhibition assay (Cbl-b activity assay, FRET, Biological Example 1; 100 mM NaCl, 60 nM Src kinase). The note with it: upper bound stated in text lists; read-out: IC50 values in the Cbl-b inhibition assay of Biological Example 1. The format is biochemical. An outline of the steps: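 Here, the E2 UbcH5B, irreversibly linked to Bodipy-fluorescein ubiquitin, binds Cbl-b once Src kinase phosphorylates it; Cbl-b carries an N-terminal biotinylated Avi-tag captured by streptavidin-terbium. An absent FRET signal indicates inhibition.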

The target of assay [2] is T1, Cbl-b. In words: Cbl-b activity assay (Cbl-b inhibition assay), TR-FRET of Cbl-b interaction with UbcH5B-Ub. Format: biochemical. An outline of the steps:
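UbcH5B (C85K) conjugated to N-terminally Bodipy-Fluorescein-labeled ubiquitin served as the fluorescent partner. After compound preincubation, Src kinase (60 nM) with 1 mM ATP and 5 mM MgCl2 (final) was added for 1.5 h, followed by a further 1 h incubation. Some values were obtained with 50 mM NaCl and 30 nM Src.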
(In TR-FRET formats the signal depends on donor and acceptor labels being close together.)

For assay [3], the target named is Cbl-b (residues 36-427) (Homo sapiens, UniProt Q13191). In words: Cbl-b binding assay (SPR, Biacore T200). The note with it: 20° C., 1:1 binding model. On the procedure:
SPR data was collected on a Biacore T200 (GE Healthcare) using a NeutrAvidin (Invitrogen) capture surface that was generated on a polycarboxylate hydrogel sensor chip of medium charge density (XanTec Bioanalytics GmbH) at 20° C. The surface was prepared using 20 mM HEPES, pH 7.5, 100 mM NaCl, 0.5 mM TCEP, 0.01% Triton X-100 as the immobilization buffer. Neutravidin was coupled to the sensor chip through EDC/NHS amine coupling. All steps were performed using a flow rate of 10 μl/min. First, the chip was preconditioned with a 3-min injection of 1 M NaCl, 0.1 M Borate followed by a 10-min equilibration in immobilization buffer. The surface was activated by a 5-min injection of 100 mM EDC/50 mM NHS. Next, 250 μg/mL NeutrAvidin buffered in 10 mM sodium acetate buffer, pH 5.0 was injected over the surface for 2 min. The surface was deactivated with 1 M Tris, pH 8.5 for 7 min then re-equilibrated in immobilization buffer for 7 min. […] Flow cell 1 served as a reference surface and was prepared without protein. All binding measurements were made in 20 mM HEPES, pH 7.5, 100 mM NaCl, 0.5 mM TCEP, 0.01% Triton X-100, 2% DMSO (referred as assay buffer) at 20° C. Compounds, prepared in assay buffer, were diluted from atop concentration of either 100 μM or 50 μM using either a 2- or 3-fold dilution scheme containing 8 or 10 points. Samples were injected for 50 s at 50 μl/min. Dissociation time varied from 90-180 s, depending on anticipated potency. The surface was regenerated by injection of 0.3 M NaCl, prepared in assay buffer for 20 s at 10 μl/min. Positive and negative control samples were run between each compound to monitor surface integrity.
Column marked with an asterisk (*) were tested as described above with assay buffer containing 50 mM NaCl instead of 100 mM NaCl and 30 nM Src kinase instead of 60 nM Src kinase. The resulting data for the Cbl-b binding assay was solvent corrected and double referenced prior to analysis. All data were globally fit to a steady-state affinity and kinetic binding model where applicable). Fit parameters were derived from a 1:1 binding model using the Biacore T200 Evaluation Software V2.0 (GE Healthcare) (Table 2).

[4] abbreviates: assay buffer with 100 mM NaCl, 60 nM Src kinase, read-out: Cbl-b activity IC50.
Where [5] appears, read: * assay buffer containing 50 mM NaCl instead of 100 mM NaCl and 30 nM Src kinase instead of 60 nM, read-out: Cbl-b activity IC50 (μM)*.

T1 sequence (Q13191 36-427): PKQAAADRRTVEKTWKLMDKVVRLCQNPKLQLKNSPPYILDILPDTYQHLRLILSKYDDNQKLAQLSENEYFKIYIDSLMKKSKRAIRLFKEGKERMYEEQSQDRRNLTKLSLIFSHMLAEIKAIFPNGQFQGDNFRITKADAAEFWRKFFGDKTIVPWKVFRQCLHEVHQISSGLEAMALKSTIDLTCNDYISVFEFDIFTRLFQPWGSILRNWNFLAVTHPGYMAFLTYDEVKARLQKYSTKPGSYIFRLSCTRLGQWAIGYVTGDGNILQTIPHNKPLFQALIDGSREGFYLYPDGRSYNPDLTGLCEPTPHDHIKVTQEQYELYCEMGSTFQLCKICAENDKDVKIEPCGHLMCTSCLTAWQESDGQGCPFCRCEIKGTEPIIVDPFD
Chain of Cbl-b (residues 36-427) (Q13191 36-427): as above

In the case of `C[C@H](Sc1nncn1C)c1cccc(NC(=O)c2cc(C(F)(F)F)cc(Cl)n2)c1` [Compound 66, (S)-6-chloro-N-(3-(1-((4-methyl-4H-1,2,4-triazol-3-yl)thio)ethyl)phenyl)-4-(trifluoromethyl)picolinamide], the IC50 – broadly, the midpoint of a concentration-inhibition curve – was no more than 10 µM in assay [1] and 1 to 3 µM in assay [2] (setting [4]). Further, the Kd (as a rule, the free concentration of one partner at which half of the binding sites on the other are occupied at equilibrium, for simple one-to-one binding) in assay [3] lay in the range of 3 to 10 µM.

As to `COc1cc(C(F)(F)F)cc(C(=O)Nc2cccc([C@H](C)Sc3nncn3C)c2)n1` [Compound 73, (S)-6-methoxy-N-(3-(1-((4-methyl-4H-1,2,4-triazol-3-yl)thio)ethyl)phenyl)-4-(trifluoromethyl)picolinamide], the results for the 50% inhibitory concentration (IC50) in assay [1] and in assay [2] (setting [4]) were no more than 10 µM and 1 to 3 µM, respectively. This compound had a Kd in assay [3] of 3 to 10 µM.

As to `C[C@H](Sc1nncn1C)c1cccc(NC(=O)c2nc(C(F)(F)F)cs2)c1` [Compound 74, N-[3-[(1 S)-1-[(4-methyl-1,2,4-triazol-3-yl)sulfanyl]ethyl]phenyl]-4-(trifluoromethyl)thiazole-2-carboxamide], the concentration for half-maximal inhibition (IC50) in assay [1] is no more than 1 µM; in assay [2] (setting [4]) it was 0.301 to 1 µM. The compound also gave a Kd in assay [3] of 1 to 3 µM.

Turning to `C[C@H](Sc1nncn1C)c1cccc(NC(=O)c2cccc(OC(F)(F)F)c2)c1` [Compound 79, (S)-N-(3-(1-((4-methyl-4H-1,2,4-triazol-3-yl)thio)ethyl)phenyl)-3-(trifluoromethoxy)benzamide], the half-maximal inhibitory concentration (IC50) was no more than 10 µM in assay [1] and 3 to 10 µM in assay [2] (setting [4]). The same compound registered a Kd in assay [3] of 3 to 10 µM.

With `Cc1cncc(C(=O)Nc2cccc([C@H](C)Sc3nncn3C)c2)n1` [Compound 82, (S)-6-methyl-N-(3-(1-((4-methyl-4H-1,2,4-triazol-3-yl)thio)ethyl)phenyl)pyrazine-2-carboxamide], the IC50 was no more than 10 µM in assay [1] and 1 to 3 µM in assay [2] (setting [4]). In assay [3], the equilibrium dissociation constant (Kd) fell in the range of 3 to 10 µM.

As to `C[C@H](Sc1nncn1C)c1cccc(NC(=O)c2cc(C(F)(F)F)c3ccccc3n2)c1` [Compound 83, (S)-N-(3-(1-((4-methyl-4H-1,2,4-triazol-3-yl)thio)ethyl)phenyl)-4-(trifluoromethyl)quinoline-2-carboxamide], the results for the IC50 in assay [1] and in assay [2] (setting [4]) were no more than 10 µM and 1 to 3 µM, respectively. For the same compound, the Kd in assay [3] was 3 to 10 µM.

Regarding `C[C@H](Sc1nncn1C)c1cccc(NC(=O)c2cc(NS(=O)(=O)CCO)ccn2)c1` [Compound 86, 4-(2-hydroxyethylsulfonylamino)-N-[3-[(1S)-1-[(4-methyl-1,2,4-triazol-3-yl)sulfanyl]ethyl]phenyl]pyridine-2-carboxamide], the IC50 in assay [1] is no more than 10 µM; in assay [2] (setting [4]), 3 to 10 µM. This compound registered a Kd in assay [3] greater than 10 µM.

With `C[C@H](Sc1nncn1C)c1cccc(NC(=O)c2cccc(CF)n2)c1` [Compound 87, 6-(fluoromethyl)-N-[3-[(1S)-1-[(4-methyl-1,2,4-triazol-3-yl)sulfanyl]ethyl]phenyl]pyridine-2-carboxamide], the IC50 in assay [1] was no more than 10 µM; in assay [2] (setting [4]) it was 1 to 3 µM. The compound also gave a Kd in assay [3] of 1 to 3 µM.

Regarding `C[C@H](Sc1nncn1C)c1cccc(NC(=O)c2cccc3scnc23)c1` [Compound 88, N-[3-[(1 S)-1-[(4-methyl-1,2,4-triazol-3-yl)sulfanyl]ethyl]phenyl]-1,3-benzothiazole-4-carboxamide], the IC50 is no more than 10 µM in assay [1] and 1 to 3 µM in assay [2] (setting [4]). In assay [3], the Kd was 3 to 10 µM.

Regarding `CCOc1cccc(C(=O)Nc2cccc([C@H](C)Sc3nncn3C)c2)n1` [Compound 90, 6-Ethoxy-N-[3-[(1S)-1-[(4-methyl-1,2,4-triazol-3-yl)sulfanyl]ethyl]phenyl]pyridine-2-carboxamide], the figures for the IC50 in assay [1] and in assay [2] (setting [4]) were no more than 10 µM and 1 to 3 µM, respectively. For the same compound, in assay [3], the Kd lay in the range of 3 to 10 µM.

Turning to `CC(Sc1nncn1C)c1ccc(F)c(NC(=O)c2cccc(C(F)(F)F)n2)c1` (stereo not drawn) [Compound 95, N-(2-fluoro-5-(1-((4-methyl-4H-1,2,4-triazol-3-yl)thio)ethyl)phenyl)-6-(trifluoromethyl)picolinamide], the IC50 in assay [1] is no more than 10 µM; in assay [2] (setting [4]) it was 1 to 3 µM. Further, the dissociation constant (Kd) in assay [3] was 1 to 3 µM.

For `C[C@@H](Sc1nncn1C)c1ccc(F)c(NC(=O)c2cccc(C(F)(F)F)n2)c1` [Compound 95b, (R)-N-(2-fluoro-5-(1-((4-methyl-4H-1,2,4-triazol-3-yl)thio)ethyl)phenyl)-6-(trifluoromethyl)picolinamide], the concentration for half-maximal inhibition (IC50) in assay [1] is no more than 10 µM; in assay [2] (setting [4]) it was 3 to 10 µM. In assay [3], this compound came in with a Kd greater than 10 µM.

Turning to `C[C@H](Sc1nncn1C)c1ccc(F)c(NC(=O)c2ccc3ccccc3n2)c1` [Compound 96a, (S)-N-(2-fluoro-5-(1-((4-methyl-4H-1,2,4-triazol-3-yl)thio)ethyl)phenyl)quinoline-2-carboxamide], the results for the 50% inhibitory concentration (IC50) in assay [1] and in assay [2] (setting [4]) were no more than 10 µM and 1 to 3 µM, respectively. This compound also showed a dissociation constant Kd in assay [3] of 1 to 3 µM.

As for `COc1ccc(C(C)Sc2nncn2C)cc1NC(=O)c1ccc2ccccc2n1` (stereo not drawn) [Compound 97, N-(2-methoxy-5-(1-((4-methyl-4H-1,2,4-triazol-3-yl)thio)ethyl)phenyl)quinoline-2-carboxamide], the IC50 is no more than 10 µM in assay [1], 1 to 3 µM in assay [2] (setting [5]) and 1 to 3 µM in assay [2] (setting [4]). The compound further showed a Kd in assay [3] of 3 to 10 µM.

As for `C[C@H](Sc1nncn1C1CC1)c1cccc(NC(=O)c2cc3ccccc3cn2)c1` [Compound 99, (S)-N-(3-(1-((4-cyclopropyl-4H-1,2,4-triazol-3-yl)thio)ethyl)phenyl)isoquinoline-3-carboxamide], the half-maximal inhibitory concentration (IC50) in assay [1] is no more than 1 µM; in assay [2] (setting [5]), 3 to 10 µM; in assay [2] (setting [4]) it was 0.301 to 1 µM. The same compound displayed a dissociation constant Kd in assay [3] of 3 to 10 µM.

Take `C[C@H](Sc1nncn1C)c1ccnc(NC(=O)c2cccc(C(F)(F)F)n2)c1` [Compound 102b, (S)-N-(4-(1-((4-methyl-4H-1,2,4-triazol-3-yl)thio)ethyl)pyridin-2-yl)-6-(trifluoromethyl)picolinamide]: the results for the half-maximal inhibitory concentration (IC50) in assay [1], in assay [2] (setting [5]) and in assay [2] (setting [4]) were no more than 10 µM, 1 to 3 µM and 1 to 3 µM, respectively. In addition, the Kd in assay [3] was in the range of 1 to 3 µM.

With `C[C@H](Sc1nncn1C)c1ccnc(NC(=O)c2ccc3cccc(F)c3n2)c1` [Compound 107, (S)-8-fluoro-N-(4-(1-((4-methyl-4H-1,2,4-triazol-3-yl)thio)ethyl)pyridin-2-yl)quinoline-2-carboxamide], the figures for the IC50 in assay [1] and in assay [2] (setting [4]) were no more than 10 µM and 1 to 3 µM, respectively. This compound gave a Kd in assay [3] of 3 to 10 µM.

For `C[C@H](Sc1nncn1C)c1ccnc(NC(=O)c2ccc3c(n2)CCCC3)c1` [Compound 108, (S)-N-(4-(1-((4-methyl-4H-1,2,4-triazol-3-yl)thio)ethyl)pyridin-2-yl)-5,6,7,8-tetrahydroquinoline-2-carboxamide], the IC50 was no more than 10 µM in assay [1] and 1 to 3 µM in assay [2] (setting [4]). This compound showed a Kd in assay [3] of 3 to 10 µM.

Turning to `C[C@H](Sc1nncn1C)c1ccnc(NC(=O)c2cc3c(cn2)CCCC3)c1` [Compound 109, (S)-N-(4-(1-((4-methyl-4H-1,2,4-triazol-3-yl)thio)ethyl)pyridin-2-yl)-5,6,7,8-tetrahydroisoquinoline-3-carboxamide], the values for the IC50 in assay [1] and in assay [2] (setting [4]) were no more than 10 µM and 3 to 10 µM, respectively. In assay [3], this compound registered a dissociation constant Kd of 3 to 10 µM.

Take `C[C@H](Sc1nncn1C)c1ccnc(NC(=O)c2cccc(C(C)(F)F)n2)c1` [Compound 110, (S)-6-(1,1-difluoroethyl)-V-(4-(1-((4-methyl-4H-1,2,4-triazol-3-yl)thio)ethyl)pyridin-2-yl)picolinamide]: the 50% inhibitory concentration (IC50) in assay [1] is no more than 1 µM; in assay [2] (setting [4]), 0.301 to 1 µM. For the same compound, the Kd in assay [3] is 3 to 10 µM.
